Results taken from paper PMC11151152, “Chemoproteomics enables identification of coatomer subunit zeta‐1 targeted by a small molecule for enterovirus A71 inhibition” (MedComm, 2024).

Assays:
[1] = target: T1, COPZ1 (endogenous, in EV-A71-infected RD cells) (Homo sapiens, UniProt P61923); experiment: photoaffinity labelling in cells, pulldown / western blot; type: cell-based; conditions: covalent (diazirine photo-crosslinking, 365 nm)
T1 sequence (P61923 1-177): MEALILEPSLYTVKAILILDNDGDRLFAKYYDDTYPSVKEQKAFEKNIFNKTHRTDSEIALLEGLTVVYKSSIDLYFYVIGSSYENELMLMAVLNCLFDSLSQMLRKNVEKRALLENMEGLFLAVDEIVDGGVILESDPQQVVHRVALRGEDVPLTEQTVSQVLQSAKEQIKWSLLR

[2] = target: T1, COPZ1 (endogenous, in EV-A71-infected RD cells); experiment: competition against MPA-P photoaffinity labelling, pulldown / western blot; type: cell-based; conditions: competitor of photoaffinity probe MPA-P
[3] = target: T2, COPZ1^7-150 (truncated human coatomer subunit zeta-1) (Homo sapiens, UniProt P61923); experiment: SPR, CM5 chip, COPZ1 immobilised; type: binding
T2 construct: E. coli BL21(DE3), pET-28a(+)
T2 sequence (P61923 7-150): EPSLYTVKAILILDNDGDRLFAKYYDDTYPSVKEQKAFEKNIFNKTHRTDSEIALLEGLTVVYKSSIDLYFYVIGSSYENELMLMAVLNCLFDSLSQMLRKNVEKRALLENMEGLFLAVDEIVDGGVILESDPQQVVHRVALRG

[4] = target: T2, COPZ1^7-150 (truncated human coatomer subunit zeta-1); experiment: fluorescence thermal shift assay (Sypro Orange); type: binding; conditions: 10 µM compound; 4 µM protein; 20 mM HEPES, 150 mM NaCl, pH 7.5

Row | Kd [3] [nM] | ΔT m [4] [°C] | Compound | photoaffinity labelling in cells, pulldown / western blot [1] | competition against MPA-P photoaffinity labelling, pulldown / western blot [2]
1 | – | – | C#CCCC1(CCSc2c(Cl)cc(C(=O)c3ccc(C(F)(F)F)cc3O)n2-c2c(C(=O)c3ccc(C(F)(F)F)cc3O)[nH]c(Cl)c2Cl)N=N1 [MPA-P] | labeling intensity of COPZ1 by MPA‐P in EV‐A71‐infected RD cells | –
2 | 24 | −3.6 | O=C(c1ccc(C(F)(F)F)cc1O)c1[nH]c(Cl)c(Cl)c1-n1c(C(=O)c2ccc(C(F)(F)F)cc2O)cc(Cl)c1Cl [MPA-CF3] | – | implying that MPA‐CF3 specifically binds to COPZ1 in intact cells
